Data on seven compounds can be found in patent publication US4663332A, “5-substituted N-alkylated tetrazoles” (Hoffman-La Roche Inc., priority 1985, dated 1987).

In general, IC50 refers to the concentration at which inhibition is half-maximal. The low end stands for higher potency, the high end for lower potency. As a reminder, the inhibition in vivo is the drop in the measured response relative to a control, in per cent.

One assay relates to LTD4. Kind of assay: Leukotriene (LTD4) Induced arrhythmia and Hypertension Test. Conditions: 100 mg/kg po, 3 hour pretreatment, conscious guinea pigs; for No. Animals with Abnormal Beat/No. Tested: first two minutes after LTD4, saline control 12/12; for ↑ABP (increase in blood pressure after LTD4): saline control 30 ± 4; for ↓ABP (decrease in blood pressure after LTD4): saline control -45 ± 4. It is filed as in vivo, guinea pig (Hartley). As for the experimental part:
(6) Leukotriene (LTD4) Induced arrhythmia and Hypertension Test
Male Hartley guinea pigs are anesthetized with sodium pentobarbital and prepared for monitoring direct blood pressure and injecting drugs intravenously by catheterizing the right carotid artery and right jugular vein. Blood pressure, heart rate, and Lead II ECG are monitored in the conscious animal 24 hours later.
The oral activity of a drug is evaluated by pretreating animals 3 hours before the LTD4 challenge.
Intravenous administration of LTD4 2.5 μg/kg) is associated with an increase in blood pressure lasting approximately 1-2 minutes followed by a decrease lasting approximately 5-15 minutes. Abnormal beats consisting of premature ventricular contractions, ST elevation or depression, atrioventricular conduction block, or dissociated p waves begin during the rise in blood pressure; the peak effect occurs approximately 40 seconds after LTD4. The number of animals with abnormal beats within the first two minutes after the injection of LTD4 over the total number of animals tested is presented in Table III. During the hypotensive response, the animal usually collapses during the 2nd or 3rd minute after LTD4 and regains posture approximately 10 minutes after LTD4.

For assay [1], the target named is T1, PAF binding to dog platelets (Canis lupus familiaris, UniProt A0A8I3NSH0).
T1 construct: from tissue; host or cells: washed platelets from citrate-treated dog blood
T1 sequence (A0A8I3NSH0 1-343): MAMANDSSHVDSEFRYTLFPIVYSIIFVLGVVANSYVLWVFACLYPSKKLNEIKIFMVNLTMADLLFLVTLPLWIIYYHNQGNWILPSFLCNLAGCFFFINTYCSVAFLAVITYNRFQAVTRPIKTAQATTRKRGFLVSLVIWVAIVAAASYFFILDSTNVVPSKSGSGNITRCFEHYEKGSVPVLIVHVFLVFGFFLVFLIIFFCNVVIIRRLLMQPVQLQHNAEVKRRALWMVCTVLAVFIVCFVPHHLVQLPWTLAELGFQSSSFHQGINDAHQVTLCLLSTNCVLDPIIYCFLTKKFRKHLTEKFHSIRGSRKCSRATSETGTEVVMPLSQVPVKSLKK
In words: PAF Radioreceptor Binding Assay (PAF Binding). Conditions: inhibition of 3H-PAF binding to dog platelets, 10 min, room temperature. As for the experimental part: (1) PAF Radioreceptor Binding Assay (PAF Binding)
Platelet rich plasma is prepared by centrifugation of citrate-treated dog blood. Acidification to pH 6.5 with 0.15M citric acid and centrifugation for 10 minutes at 1000×g yields a platelet pellet which is then washed by resuspension in EDTA-Phosphate Buffered Saline (PBS) and recentrifuged. The washed platelet preparation is adjusted to 2×10^7 platelets/50 μl in 0.1% bovine serum albumin-PBS.
To a 400 μl microfuge tube containing 50 μl silicone oil (specific gravity 1.023) is added buffer, PAF standard or analog, or an extract to bring the aqueous volume to 150 μl. 50 μl of ^3 H-PAF (10,000 cpm, 45 Ci/mM) is added followed by 2×10^7 dog platelets. After mixing, incubating for 10 minutes at room temperature, and centrifuging for 1 minute in a Beckman Microfuge B (8000×g), the pellet is removed by clipping off the tip of the tube, the platelets are solubilized with 200 μl of 50% methanol and counted in 10 ml of Aquasol. […] Results obtained with representative copounds of the present invention in this assay are summarized hereinafter in Tables I and II. IC50 is drug concentration (μMolar) which inhibits PAF binding to dog platelets by 50%.

Another assay addresses T2, TXA2 synthase (Homo sapiens, UniProt P24557).
T2 construct: using microsomal fractions from human platelets as enzyme source; from tissue; host or cells: microsomal fractions from human platelets
T2 sequence (P24557 1-533): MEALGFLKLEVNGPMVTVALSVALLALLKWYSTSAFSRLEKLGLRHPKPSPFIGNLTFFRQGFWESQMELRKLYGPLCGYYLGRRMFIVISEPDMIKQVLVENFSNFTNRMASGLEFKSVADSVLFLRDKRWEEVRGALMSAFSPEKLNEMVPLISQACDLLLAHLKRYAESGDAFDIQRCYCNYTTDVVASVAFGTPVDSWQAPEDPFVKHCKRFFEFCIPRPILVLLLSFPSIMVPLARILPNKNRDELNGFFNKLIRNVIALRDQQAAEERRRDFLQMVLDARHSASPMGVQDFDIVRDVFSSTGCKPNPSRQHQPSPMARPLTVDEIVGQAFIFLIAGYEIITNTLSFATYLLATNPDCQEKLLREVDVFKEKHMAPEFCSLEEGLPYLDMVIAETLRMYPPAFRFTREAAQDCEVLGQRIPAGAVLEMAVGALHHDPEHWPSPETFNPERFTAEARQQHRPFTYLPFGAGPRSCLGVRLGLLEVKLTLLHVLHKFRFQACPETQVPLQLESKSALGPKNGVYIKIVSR
In words: Thromboxane Synthase Inhibition, In Vitro (TXA2 Synth. Inhib.). It is filed as biochemical. Conditions: human platelet microsomes, 10 μM 14C-PGH2, 22° C., 2 min. As for the experimental part: (2) Thromboxane Synthase Inhibition, In Vitro (TXA2 Synth. Inhib.)
TXA2 synthase activity is measured by following the conversion of ^14 C-prostaglandin endoperoxide (PGH2) to ^14 C-thromboxane A2 (TXA2) using microsomal fractions from human platelets as enzyme source. In the aqueous incubation medium, the TXA2 decomposes rapidly into TXB2. The amount of TXA2 synthase is adjusted so that under the conditions of the assay approximately 80-90% of the substrate, PGH2, is converted to product in control tubes. To prepare ^14 C-PGH2, ^14 C-AA (50-60 mCi/mmole; Rose Chem.) is incubated with sheep seminal vesicular gland microsomes for 1.5 minutes at 37° C. and then the ^14 C-PGH2 is extracted with diethylether, purified on columns oof Sephadex LH-20 or silicic acid, and stored in acetone at -70° C. Incubations are done as follows. Sufficient ^14 C-PGH2 to yield a final substrate concentration of 10 μM (30,000 cpm) is added to the incubation tubes and then the acetone is removed under nitrogen. The tubes are placed in an ice bath and then 215 μl of ice cold phosphate buffered saline, 10 μl of ethanol (control) or of test drug in ethanol, and 25 μl of the microsomal suspension are added with mixing in that order as rapidly as possible. The tubes are incubated at 22° C. for 2 minutes, the reaction is stopped and then the radioactive products and the unconverted PGH2 are extracted and analyzed by thin layer chromatography. […] The amount of ^14 C-PGH2 converted to products was used as a measure of TXA2 synthase activity. Inhibitors were tested initially at a final concentration 100 μM. Results obtained with representative compounds of the present invention in this assay are summarized hereafter in Tables I and II. IC50 is the drug concentration (μMolar) which inhibits TXA2 activity by 50%.

Assay [2] has as its system PAF. In words: Inhibition of PAF Induced Guinea Pig Bronchoconstriction Test (Inhib. of PAF Broncho.). The assay is classed as in vivo, guinea pig (Hartley strain). Conditions: Cavia porcellus, iv; 1 mg/kg i.v. (1 min. pretreat). Here is the method: (3) Inhibition of PAF Induced Guinea Pig Bronchoconstriction Test (Inhib. of PAF Broncho.)
Male guinea pigs (Hartley strain) weighing 300 to 500 g are anesthetized with urethane (2 g/kg) intraperitoneally and a polyethylene cannula is inserted into the jugular vein for drug administration. Tracheal pressure is recorded from a cannula inserted in the trachea and connected to a Statham pressure transducer. Propranolol (0.1 mg/kg) is administered intravenously five minutes before challenge with synthetic PAF, the animal's skeletal muscles are then paralyzed with succinylcholine (1.2 mg/kg i.v.), and the animal is respirated using a Harvard small animal respirator operating at 40 breaths/min and 2.5 cc stroke volume. Under these conditions PAF induces a dose-dependent increase in ventilatory pressure over a dose range of 0.5 to 5 μg/kg i.v. For screening purposes animals are challenged with a single dose of PAF (10 μg/kg i.v.).
The peak increase in ventilatory pressure (cm H2 O) is recorded for three control animals and five drug-treated animals and the percent inhibition determined from the following formula [formula] Results obtained with representative compounds of the invention in this test are summarized hereinafter in Tables I and II.

Assay [3] has as its system PAF. Kind of assay: Inhibition of PAF-Induced Platelet Aggregation (Inhib. of PAF Platelet Reduction). It is filed as in vivo, guinea pig. Conditions: Cavia porcellus, iv, 3 mg/kg i.v. As for the experimental part: (5) Inhibition of PAF-Induced Platelet Aggregation (Inhib. of PAF Platelet Reduction)
Guinea pigs (anesthetized) are set up to withdraw blood for platelet counting. The animal is allowed to stabilize after completion of surgical procedures. The carotid catheter is allowed to bleed back blood and then is filled, prior to each sample withdrawal with sodium citrate 3.8% (0.15 ml). Blood (0.25 ml) is withdrawn 30 seconds prior to the PAF challenge and at 15, 30 and 60 seconds after the PAF challenge. This first PAF challenge is used as the control, assuming sufficient decreases in platelet count are observed. The amount of PAF used will be approximately 50 ng/kg, however, this can be increased to achieve the desired decreases in platelet count. Fifteen minutes after the control PAF challenge, intravenous drug dosing begins, with animals being dosed at 30 minute intervals; PAF challenge follows 15 minutes after each intravenous dose. Three intravenous drug doses are used in each experiment. Initial drug doses are 1, 3 and 10 mg/kg i.v. Inhibition of PAF platelet reduction at 3 mg/kg i.v. for representative compounds of the invention are summarized hereinafter in Tables I and II. Percent inhibition is [formula]

Turning to `CCCc1c(OCCCc2nnnn2CCCc2cccnc2)ccc(C(C)=O)c1O` [3 3, 1-[2-Hydroxy-3-propyl-4-[3-[1-[3-(3-pyridinyl)propyl]-1H-tetrazol-5-yl]propoxy]phenyl]ethanone], in the assay on LTD4, the “No. Animals with Abnormal Beat/No. Tested” value was 1/4, the “↑ABP (increase in blood pressure after LTD4)” value is 14 ± 5 Δmm Hg and the “↓ABP (decrease in blood pressure after LTD4)” value is listed as -23 ± 10 Δmm Hg.
In the case of `CCCc1c(OCCCCCc2nnnn2CCCc2cccnc2)ccc(C(C)=O)c1O` [5 3, 1-[2-hydroxy-3-propyl-4-[5-[1-[3-(3-pyridinyl)propyl]-1H-tetrazol-5-yl]pentyloxy]phenyl]ethanone], in the assay on LTD4, the “No. Animals with Abnormal Beat/No. Tested” value was 0/4, the “↑ABP (increase in blood pressure after LTD4)” value is on record as 13 ± 8 Δmm Hg and the “↓ABP (decrease in blood pressure after LTD4)” value was -20 ± 9 Δmm Hg.
In the case of `CCCc1c(OCCCCCc2nnnn2CCCc2cccnc2)ccc(C(C)=O)c1OC(C)=O` [H Ac 5 3 3-pyridyl, 1-[2-Acetoxy-3-propyl-4-[5-[1-[3-(3-pyridinyl)propyl]-1H-tetrazol-5-yl]pentyloxy]phenyl]ethanone], the 50% inhibitory concentration (IC50) in assay [1] was 180 nM; at TXA2 synthase, 100 to 1000 nM. Moreover, in the assay on PAF [2], the inhibition in vivo at 1 mg/kg was 84.8 ± 11%. The inhibition in vivo at 3 mg/kg with PAF [3] worked out at 31%.
For `CCCc1c(OCCCc2nnnn2CCCCc2cccnc2)ccc(C(C)=O)c1O` [H H 3 4 3-pyridyl, 1-[2-Hydroxy-3-propyl-4-[3-[1-[4-(3-pyridinyl)butyl]-1H-tetrazol-5-yl]propoxy]phenyl]ethanone], the results for the IC50 (in assay [1]; at TXA2 synthase) were 450 nM and 100 to 1000 nM, respectively. Also, the inhibition in vivo at 1 mg/kg with PAF [2] is 59 ± 12%. The same compound had an inhibition in vivo at 3 mg/kg in the assay on PAF [3] of 40%.
Consider `CCCc1c(OCCCCc2nnnn2CCCn2ccnc2)ccc(C(C)=O)c1O` [H H 4 3 1-imidazolyl, 1-[2-Hydroxy-3-propyl-4-[4-[1-[3-(1H-imidazol-1-yl)propyl]-1H-tetrazol-5-yl]butoxy]phenyl]ethanone], for which the IC50 in assay [1] was 175 nM; on TXA2 synthase, 100 to 1000 nM. In addition, the inhibition in vivo at 1 mg/kg with PAF [2] was 8 ± 8%. The same compound gave an inhibition in vivo at 3 mg/kg in the assay with PAF [3] of 3%.
Take `CCCc1c(OCCCCCc2nnnn2CCCc2cccnc2)ccc(C(C)=O)c1O` [H H 5 3 3-pyridyl, 1-[2-hydroxy-3-propyl-4-[5-[1-[3-(3-pyridinyl)propyl]-1H-tetrazol-5-yl]pentyloxy]phenyl]ethanone]: the IC50 in assay [1] is 150 nM; on TXA2 synthase, 100 to 1000 nM. In addition, the inhibition in vivo at 1 mg/kg in the assay on PAF [2] came out at 96 ± 1%. In addition, the inhibition in vivo at 3 mg/kg in the assay on PAF [3] was 12%.
On to `CCCc1c(OCCCCCc2nnnn2CCCCc2cccnc2)ccc(C(C)=O)c1O` [H H 5 4 3-pyridyl, 1-[2-Hydroxy-3-propyl-4-[5-[1-[4-(3-pyridinyl)butyl]-1H-tetrazol-5-yl]pentyloxy]phenyl]ethanone], for which the IC50 in assay [1] was 275 nM; at TXA2 synthase, 100 to 1000 nM. In the assay on PAF [2], the inhibition in vivo at 1 mg/kg was found to be 58 ± 14%. Testing at 3 mg/kg in the assay with PAF [3] gave an inhibition in vivo of 0%.
